Experimental data reported in patent US4818761A, “2-(4-pyridylaminomethyl)-benzimidazole derivatives having antiviral activity” (priority 1986, dated 1989).
In brackets after ≈: the same amount, converted by molar mass.

Key:
[1] = test system: enterovirus type 70 (EV70); experiment: Inhibition of EV70 cytopathogenic effect (CPE) in LLC-MK2 cells; type: cell-based; conditions: Enterovirus D; * Virus CPE inhibition assay, LLC-MK2 cells, 33° C.
in vitro = conditions: monkey, llc-mk2 cells
[2] = test system: enterovirus type 70 (EV70); experiment: Inhibition of EV70 plaque formation in LLC-MK2 cells; type: cell-based; conditions: for CI EV70 (C)/(A): CI = CD50 (LLC-MK2)/IC50 (plaque); for IC50: Enterovirus D, plaque reduction, LLC-MK2 cells, 33° C.
[3] = test system: poliovirus type 2 (Polio2); experiment: microbe, parasite or virus in culture; type: cell-based; conditions: for CI Polio2 (C)/(A): CI = CD50 (LLC-MK2)/IC50 (plaque); for IC50: Enterovirus C, LLC-MK2, read-out: IC50 Polio2
[4] = test system: coxsackievirus type B4 (CB4); experiment: Inhibition of CB4 plaque formation in LLC-MK2 cells; type: cell-based; conditions: for CI CB4 (C)/(A): CI = CD50 (LLC-MK2)/IC50 (plaque); for IC50: Coxsackievirus, plaque reduction, LLC-MK2 cells, 37° C.
[5] = test system: rhinovirus type 14 (HRV14); experiment: Inhibition of HRV14 plaque formation in HeLa cells; type: cell-based; conditions: Enterovirus, HRV14; plaque reduction, HeLa cells, 33° C.

Structure (SMILES)	IC50 [1]	CC50 (in vitro)	CI EV70 (C)/(A) [2]	IC50 [2]	CI Polio2 (C)/(A) [3]	IC50 [3]	CI CB4 (C)/(A) [4]	IC50 [4]	IC50 [5]
c1ccc(-c2ccc3[nH]c(CNc4ccncc4)nc3c2)cc1 [IX]	> 100 µg/mL	> 100 µg/mL							
Cn1c(CNc2ccncc2)nc2ccccc21 [X]		> 1000 µg/mL	> 30	33 µg/mL (≈ 138 µM)	> 6	170 µg/mL (≈ 713 µM)	> 31	32 µg/mL (≈ 134 µM)	> 100 µg/mL
c1ccc(-n2c(CNc3ccncc3)nc3ccccc32)cc1 [XXI]		1410 µg/mL (≈ 4710 µM)	943	1.5 µg/mL (≈ 4.99 µM)	29	48 µg/mL (≈ 160 µM)	943	1.5 µg/mL (≈ 4.99 µM)	> 50 µg/mL
Fc1ccc(-n2c(CNc3ccncc3)nc3ccccc32)cc1 [XXIII]		> 2000 µg/mL	> 1,818	1.1 µg/mL (≈ 3.46 µM)	> 256	7.8 µg/mL (≈ 24.5 µM)	> 2,410	0.83 µg/mL (≈ 2.61 µM)	30 µg/mL (≈ 94.2 µM)
CC(C)n1c(CNc2ccncc2)nc2ccccc21.Cl [XIII, 1-isopropyl-2-(4-pyridylaminomethyl)benzimidazole hydrochloride]	> 100 µg/mL	> 100 µg/mL					> 1	85 µg/mL	
CCc1ccc(-n2c(CNc3ccncc3)nc3ccccc32)cc1 [LXVI]		> 100 µg/mL		> 100 µg/mL		> 100 µg/mL	> 37	2.7 µg/mL (≈ 8.22 µM)	> 100 µg/mL
CCc1cc2nc(CNc3ccncc3)[nH]c2cc1Cl [XXXII]		88.4 µg/mL (≈ 308 µM)	134	0.66 µg/mL (≈ 2.3 µM)	3	35 µg/mL (≈ 122 µM)	7	12.5 µg/mL (≈ 43.6 µM)	< 1 µg/mL
CCCc1ccc2[nH]c(CNc3ccncc3)nc2c1 [V]		354 µg/mL (≈ 1330 µM)	93	3.8 µg/mL (≈ 14.3 µM)		> 100 µg/mL		> 100 µg/mL	
CCCCn1c(CNc2ccncc2)nc2ccccc21 [XV]		> 2000 µg/mL	> 1,429	1.4 µg/mL (≈ 4.99 µM)	> 625	3.2 µg/mL (≈ 11.4 µM)	> 5,405	0.37 µg/mL (≈ 1.32 µM)	> 50 µg/mL
CCCCn1c(CNc2ccncc2)nc2cc(C)ccc21 [XLII]		1410 µg/mL (≈ 4800 µM)	240	5.9 µg/mL (≈ 20 µM)	51	27.6 µg/mL (≈ 93.7 µM)	1,010	1.4 µg/mL (≈ 4.76 µM)	> 50 µg/mL
CCn1c(CNc2ccncc2)nc2ccccc21 [XI]	> 100 µg/mL	5660 µg/mL (≈ 22400 µM)					1,768	3.2 µg/mL (≈ 12.7 µM)	
Ic1ccc2[nH]c(CNc3ccncc3)nc2c1 [III]		> 100 µg/mL	> 15	6.5 µg/mL (≈ 18.6 µM)		> 100 µg/mL	> 3	33 µg/mL (≈ 94.2 µM)	6.2 µg/mL (≈ 17.7 µM)
CCCCc1ccc2[nH]c(CNc3ccncc3)nc2c1 [VII]		56.2 µg/mL (≈ 200 µM)	3	17.8 µg/mL (≈ 63.5 µM)					
Cc1cc2nc(CNc3ccncc3)[nH]c2cc1F [XXX]		> 100 µg/mL	> 8	12 µg/mL (≈ 46.8 µM)		> 100 µg/mL		> 50 µg/mL	8.6 µg/mL (≈ 33.6 µM)
COc1cc2nc(CNc3ccncc3)[nH]c2cc1OC [XXXIV]	> 100 µg/mL	> 100 µg/mL							
Cc1ccc(-n2c(CNc3ccncc3)nc3ccccc32)cc1 [XXII]		1410 µg/mL (≈ 4500 µM)	2,719	0.52 µg/mL (≈ 1.65 µM)		> 10 µg/mL	2,946	0.48 µg/mL (≈ 1.53 µM)	38 µg/mL (≈ 121 µM)
CCc1cc2[nH]c(CNc3ccncc3)nc2cc1Br [XXXI, 2-(4-pyridylaminomethyl)-5(6)-ethyl-6(5)-bromobenzimidazole]		88.4 µg/mL (≈ 267 µM)	74	1.2 µg/mL (≈ 3.62 µM)	1	82 µg/mL (≈ 248 µM)		> 10 µg/mL	1.4 µg/mL (≈ 4.23 µM)
CC(C)CCn1c(CNc2ccncc2)nc2ccccc21.Cl [L, 1-isoamyl-2-(4-pyridylaminomethyl)benzimidazole hydrochloride]		1410 µg/mL	1,010	1.4 µg/mL	329	4.3 µg/mL	4,159	0.34 µg/mL	> 100 µg/mL
Fc1cc2nc(CNc3ccncc3)[nH]c2cc1Cl [XXXV]		> 100 µg/mL	> 15	6.8 µg/mL (≈ 24.6 µM)		> 100 µg/mL	> 3	34 µg/mL (≈ 123 µM)	15.5 µg/mL (≈ 56 µM)
CCCCCCn1c(CNc2ccncc2)nc2ccccc21 [XVIII]		707 µg/mL (≈ 2290 µM)	16	44 µg/mL (≈ 143 µM)		> 100 µg/mL	544	1.3 µg/mL (≈ 4.21 µM)	
Cn1c(CNc2ccncc2)nc2ccc(Cl)cc21 [XXXIX]		> 100 µg/mL	> 2	50 µg/mL (≈ 183 µM)		> 100 µg/mL	> 1	82 µg/mL (≈ 301 µM)	> 50 µg/mL
CC(C)(C)c1ccc2[nH]c(CNc3ccncc3)nc2c1 [VIII]	> 100 µg/mL	> 100 µg/mL							
CCCCCn1c(CNc2ccncc2)nc2ccccc21 [XVI]		1410 µg/mL (≈ 4800 µM)	643	2.2 µg/mL (≈ 7.47 µM)	74	19 µg/mL (≈ 64.5 µM)	> 2,828	< 0.5 µg/mL	> 50 µg/mL
Cc1ccc2c(c1)nc(CNc1ccncc1)n2C [XXXVI]	> 100 µg/mL	> 100 µg/mL							
